Structures are written as SMILES.

We go through eight compounds from patent US11236079B2, “Morpholine derivates as inhibitors of Vps34” (Neuropore Therapies, Inc., priority 2018, dated 2022).

The target of one assay is PI3KC3 (hVPS34) kinase (Homo sapiens (Human), UniProt Q8NEB9). Put plainly: PI3KC3 (hVPS34) kinase assay, ADP-Glo luminescence detection. It counts as biochemical. Conditions: PI:PS lipid substrate, 60 min at 30° C., read-out: VPS34 IC50. The procedure: The PI3KC3 (hVPS34) kinase reactions utilize ATP and produce ADP as a byproduct. The ADP production is quantified by ADP-Glo luminescence detection. The PI3KC3 (hVPS34) kinase assay was performed by Reaction Biology Corp. (Malvern, Pa.).
Sequence of PI3KC3 (hVPS34) kinase (Q8NEB9 whole entry): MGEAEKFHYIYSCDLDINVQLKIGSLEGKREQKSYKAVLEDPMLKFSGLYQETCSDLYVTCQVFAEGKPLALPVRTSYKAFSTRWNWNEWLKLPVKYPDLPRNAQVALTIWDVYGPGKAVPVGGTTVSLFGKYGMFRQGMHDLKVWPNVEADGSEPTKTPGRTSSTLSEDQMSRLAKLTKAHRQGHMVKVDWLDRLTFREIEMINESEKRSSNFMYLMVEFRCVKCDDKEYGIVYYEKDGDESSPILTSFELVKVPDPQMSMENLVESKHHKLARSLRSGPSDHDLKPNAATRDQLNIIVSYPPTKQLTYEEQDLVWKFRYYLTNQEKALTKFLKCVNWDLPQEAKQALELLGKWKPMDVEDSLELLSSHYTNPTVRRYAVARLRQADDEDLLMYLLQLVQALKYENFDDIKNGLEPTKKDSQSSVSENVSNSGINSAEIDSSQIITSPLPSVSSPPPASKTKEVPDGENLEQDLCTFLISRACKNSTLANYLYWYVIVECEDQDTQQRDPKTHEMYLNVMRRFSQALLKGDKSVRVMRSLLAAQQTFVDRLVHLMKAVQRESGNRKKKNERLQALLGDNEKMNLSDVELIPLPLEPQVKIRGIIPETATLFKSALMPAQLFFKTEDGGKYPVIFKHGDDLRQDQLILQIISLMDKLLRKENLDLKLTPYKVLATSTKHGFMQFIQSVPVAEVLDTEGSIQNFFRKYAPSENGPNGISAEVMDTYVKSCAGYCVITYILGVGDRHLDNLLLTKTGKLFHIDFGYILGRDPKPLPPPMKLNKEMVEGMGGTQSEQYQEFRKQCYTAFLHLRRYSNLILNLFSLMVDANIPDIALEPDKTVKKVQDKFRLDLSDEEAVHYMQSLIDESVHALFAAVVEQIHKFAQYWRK
This was a 3-step reaction: First, the kinase reaction with lipid substrate was carried out in the presence of ATP. The reaction was then quenched, and the remaining ATP depleted with ADP-Glo™ reagent. Finally, the ADP was converted to ATP, which is measured using a luciferase/luciferin reaction. The luminescence was converted into μM ADP production based on ADP standard curves. The nonlinear regression to obtain the standard curve and IC50 values were performed using Graphpad Prism software.
The substrate (Phosphatidylinositol (PI): Phosphatidylserine (PS)) was added to freshly prepared reaction buffer (40 mM Tris-HCl (pH7.5), 3 μM Orthovanadate, 20 mM MgCl2, 2 mM DTT, 0.05% CHAPS, 1% DMSO). The PI3KC3 (hVPS34) kinase was delivered into the substrate solution with gentle mixing. Compounds were delivered in 100% DMSO into the kinase reaction mixture by Acoustic technology (Echo550; nanoliter range). The reaction was incubated for 20 min at room temperature. ATP was delivered into the reaction mixture to initiate the reaction. After incubating the mixture for 60 min at 30° C., the reaction was quenched with ADP-Glo reagent (Promega ADP Glo Kinase Assay kit #V9102) and incubated for 40 min at room temperature. Detection mixture (Promega ADP Glo Kinase Assay kit #V9102) was added and the reaction was incubated for 30 minutes. Luminescence was measured.

In another assay the target is PI3Kα (Homo sapiens (Human), UniProt P42336). Put plainly: PI3Kα inhibition, ATP to ADP conversion by ADP-Glo kinase activity assay. Type of assay: biochemical. Conditions: 25 μM PIP2:PS, 60 μM ATP, reaction time 30 minutes. The procedure:
Inhibition of PI3Kα—Quantification of ATP to ADP conversion as a measure of PI3Kα activity. Active PI3Kα (Life Technologies), in the presence or absence of PI3Kα inhibitor, was reacted with PIP2:PS (Life Technologies), a substrate specifically optimized for use with Class I PI3 kinases, and ultrapure ATP (Promega). The conversion of ATP to ADP by PI3Kα was measured as luminescence signal via Promega ADP-Glo kinase activity assay. Assay was validated using published PI3Kα inhibitors LY294002, PI-103, BYL719, and GDC0198 as well as a DMSO vehicle control.
Compounds were prepared at 100× final concentration using a 12-point, 1:3 serial-dilution in DMSO, with DMSO control as the 12th point. Compound was then diluted in HEPES buffer (25 mM HEPES pH 7.5, 1 mM EGTA, 0.3% CHAPS) prior to addition to PI3Kα. Active PI3Kα diluted to 0.24 ng/μL (1.1 nM) in (50 mM HEPES pH 7.5, 6 mM MgCl2, 1 mM EGTA, 200 mM NaCl, 0.03% CHAPS, 8 mM DTT) was incubated with compound for 0 hr and 3 hr prior to the start of the reaction. 25 μM PIP2:PS and 60 μM ATP were diluted from stock solution (25 mM HEPES pH 7.5, 1 mM EGTA, 0.3% CHAPS) and added to initiate the PI3Kα reaction. Reaction time was 30 minutes. ATP to ADP conversion was measured in Luminescence Counts on DTX880 Plate Reader (Beckman Coulter). The IC50 of the compounds were reported using the GraphPad Prism software. Analytical method was non-linear regression, 4-parameter curve fit with bottom fit to validated PI3Kα inhibitor reference controls and no top fit (floating top).
A general note: ADP-Glo first removes unused ATP, then detects ADP through luciferase.

Sequence of PI3Kα (P42336 whole entry): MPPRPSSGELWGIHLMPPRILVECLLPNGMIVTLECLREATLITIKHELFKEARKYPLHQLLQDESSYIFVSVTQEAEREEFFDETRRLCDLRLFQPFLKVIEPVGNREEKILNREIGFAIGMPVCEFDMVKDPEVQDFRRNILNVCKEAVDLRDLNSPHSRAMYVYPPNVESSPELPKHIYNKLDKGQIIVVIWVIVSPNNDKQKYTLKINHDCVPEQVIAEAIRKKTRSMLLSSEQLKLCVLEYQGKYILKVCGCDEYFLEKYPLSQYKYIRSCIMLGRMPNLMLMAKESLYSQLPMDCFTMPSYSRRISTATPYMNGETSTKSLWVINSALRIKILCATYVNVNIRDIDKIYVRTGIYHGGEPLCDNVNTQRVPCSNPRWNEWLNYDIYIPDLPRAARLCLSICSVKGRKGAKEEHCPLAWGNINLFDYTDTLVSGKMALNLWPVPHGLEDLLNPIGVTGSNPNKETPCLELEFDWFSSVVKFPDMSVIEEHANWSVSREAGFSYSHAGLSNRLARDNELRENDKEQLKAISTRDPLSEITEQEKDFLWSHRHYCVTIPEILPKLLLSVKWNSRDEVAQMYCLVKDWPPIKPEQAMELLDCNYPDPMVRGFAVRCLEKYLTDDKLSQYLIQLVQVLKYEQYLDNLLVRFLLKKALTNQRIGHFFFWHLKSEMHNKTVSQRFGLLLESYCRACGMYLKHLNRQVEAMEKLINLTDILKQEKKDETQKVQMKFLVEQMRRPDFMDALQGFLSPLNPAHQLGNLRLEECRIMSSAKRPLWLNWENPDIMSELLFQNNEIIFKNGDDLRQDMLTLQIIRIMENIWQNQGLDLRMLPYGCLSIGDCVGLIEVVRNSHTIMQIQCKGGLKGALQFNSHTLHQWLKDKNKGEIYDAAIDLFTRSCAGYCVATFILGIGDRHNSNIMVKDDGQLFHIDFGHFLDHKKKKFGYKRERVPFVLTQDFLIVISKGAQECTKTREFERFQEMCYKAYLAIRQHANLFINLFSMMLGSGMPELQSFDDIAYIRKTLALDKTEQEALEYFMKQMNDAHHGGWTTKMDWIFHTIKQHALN
Sequence of PI3Kα (P27986 whole entry partner): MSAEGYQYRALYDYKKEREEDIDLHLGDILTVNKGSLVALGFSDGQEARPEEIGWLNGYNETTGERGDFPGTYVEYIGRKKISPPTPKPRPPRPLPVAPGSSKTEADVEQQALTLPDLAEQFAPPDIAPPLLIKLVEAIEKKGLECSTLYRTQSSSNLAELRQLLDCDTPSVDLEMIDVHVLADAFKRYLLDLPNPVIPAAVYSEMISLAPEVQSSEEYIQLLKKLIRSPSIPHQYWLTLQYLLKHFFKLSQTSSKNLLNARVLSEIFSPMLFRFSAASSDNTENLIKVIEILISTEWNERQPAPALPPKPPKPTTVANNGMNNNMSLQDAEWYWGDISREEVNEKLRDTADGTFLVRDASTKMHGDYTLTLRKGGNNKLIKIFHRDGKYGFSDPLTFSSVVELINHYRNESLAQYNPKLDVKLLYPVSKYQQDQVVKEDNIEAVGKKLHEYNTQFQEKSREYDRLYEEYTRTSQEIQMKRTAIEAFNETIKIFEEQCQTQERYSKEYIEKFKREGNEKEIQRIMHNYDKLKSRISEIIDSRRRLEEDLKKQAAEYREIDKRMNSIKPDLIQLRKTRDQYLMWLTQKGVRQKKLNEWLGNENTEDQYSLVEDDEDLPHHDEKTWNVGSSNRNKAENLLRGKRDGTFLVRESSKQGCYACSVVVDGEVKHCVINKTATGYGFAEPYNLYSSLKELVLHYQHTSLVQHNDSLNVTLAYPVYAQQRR

On to `Nc1ncc(-c2cc(N3CCOCC3)cc(S(=O)(=O)[C@@H]3CCOC3)c2)s1` [Example 1, (R)-5-(3-morpholino-5-((tetrahydrofuran-3-yl)sulfonyl)phenyl)thiazol-2-amine], for which the IC50 (in general, the concentration at which inhibition is half-maximal) on PI3KC3 (hVPS34) kinase was 3.8 µM; at PI3Kα, 0.75 µM.

For the compound `Nc1nc(C(F)(F)F)c(-c2cc(N3CCOCC3)cc(S(=O)(=O)[C@@H]3CCOC3)c2)s1` [Example 2, (R)-5-(3-morpholino-5-((tetrahydrofuran-3-yl)sulfonyl)phenyl)-4-(trifluoromethyl)thiazol-2-amine], the IC50 at PI3KC3 (hVPS34) kinase was determined as 2.1 µM; at PI3Kα, 0.74 µM.

For `Nc1nnc(-c2cc(N3CCOCC3)cc(S(=O)(=O)c3ccccc3)c2)s1` [Example 3, 5-(3-morpholino-5-(phenylsulfonyl)phenyl)-1,3,4-thiadiazol-2-amine], the IC50 on PI3KC3 (hVPS34) kinase came to 1.6 µM; on PI3Kα it was 2.2 µM.

Take `Nc1nsc(-c2cc(N3CCOCC3)cc(S(=O)(=O)c3ccccc3)c2)n1` [Example 4, 5-(3-morpholino-5-(phenylsulfonyl)phenyl)-1,2,4-thiadiazol-3-amine]: the IC50 is 2.2 µM on PI3KC3 (hVPS34) kinase and 11.2 µM against PI3Kα.

For the compound `Nc1ncc(-c2cc(S(=O)(=O)c3ccccc3)cc(N3CCOCC3)n2)s1` [Example 5, 5-(6-morpholino-4-(phenylsulfonyl)pyridin-2-yl)thiazol-2-amine], the IC50 at PI3KC3 (hVPS34) kinase stood at 0.081 µM; on PI3Kα it was 0.502 µM.

Consider `Nc1nc(C(F)(F)F)c(-c2cc(S(=O)(=O)c3ccccc3)cc(N3CCOCC3)n2)s1` [Example 6, 5-(6-morpholino-4-(phenylsulfonyl)pyridin-2-yl)-4-(trifluoromethyl)thiazol-2-amine], for which the IC50 turned out to be 0.287 µM on PI3KC3 (hVPS34) kinase and 5.24 µM at PI3Kα.

Take `Cc1nc(N)sc1-c1cc(S(=O)(=O)c2ccccc2)cc(N2CCOCC2)n1` [Example 7, 4-methyl-5-(6-morpholino-4-(phenylsulfonyl)pyridin-2-yl)thiazol-2-amine]: the IC50 at PI3KC3 (hVPS34) kinase was 0.019 µM; on PI3Kα, 2.3 µM.

Turning to `Nc1ncc(-c2cc(Oc3ccccc3)cc(N3CCOCC3)n2)s1` [Example 8, 5-(6-morpholino-4-phenoxypyridin-2-yl)thiazol-2-amine], the concentration for half-maximal inhibition (IC50) on PI3KC3 (hVPS34) kinase turned out to be 0.15 µM; against PI3Kα it was 3.42 µM.
